# Results reported in ChEMBL document CHEMBL3297705, “Discovery of 5,6,7,8-tetrahydropyrido[3,4-d]pyrimidine inhibitors of Erk2” (Bioorg Med Chem Lett, 2014).
# Legend:
# [1] = biological target: T1, Mitogen-activated protein kinase 1 (Homo sapiens, UniProt P28482)
# Description: Inhibition of ERK2 in human HepG2 cells assessed as P90RSK phosphorylation at Ser380 after 1.5 hrs by fluorescence assay
# [2] = biological target: T1, Mitogen-activated protein kinase 1; remark: listed apart in the source
# Description: Inhibition of human recombinant N-terminal 6-His-tagged ERK2 expressed in Escherichia coli using S/T17 as substrate after 30 mins by spectrophotometry
# [3] = biological target: Cyclin-dependent kinase 2 (Homo sapiens, UniProt P24941)
# Description: Inhibition of Cdk2 (unknown origin)
# [4] = Plasma protein binding in human; type: ADME, cell-free; conditions: read-out: PPB (converted)
# [5] = Oral bioavailability in beagle dog at 2 mg/kg; type: ADME, organism-based, Canis lupus familiaris; conditions: in vivo
# [6] = AUC (0 to infinity) in cynomolgus monkey at 3 mg/kg, po; type: ADME, organism-based, Macaca fascicularis; parameters: dose 3 mg/kg, route oral, time infinity; conditions: plasma
# [7] = Clearance in Sprague-Dawley rat at 1 mg/kg, iv; type: ADME, organism-based; parameters: dose 1 mg/kg, route intravenous; conditions: in vivo
# [8] = Half life in Sprague-Dawley rat at 5 mg/kg, po; type: ADME, organism-based; parameters: dose 5 mg/kg, route oral; conditions: in vivo
# [9] = Tmax in NCR nude mouse at 150 mg/kg, po; type: ADME, organism-based; parameters: dose 150 mg/kg, route oral; conditions: in vivo
# [10] = AUC (0 to infinity) in NCR nude mouse at 30 mg/kg, po; type: ADME, organism-based; parameters: time infinity, dose 30 mg/kg, route oral; conditions: plasma
# [11] = AUC (0 to infinity) in Sprague-Dawley rat at 5 mg/kg, po; type: ADME, organism-based; parameters: time infinity, dose 5 mg/kg, route oral; conditions: plasma
# [12] = AUC (0 to infinity) in NCR nude mouse at 150 mg/kg, po; type: ADME, organism-based; parameters: time infinity, dose 150 mg/kg, route oral; conditions: plasma
# [13] = Oral bioavailability in Sprague-Dawley rat at 5 mg/kg; type: ADME, organism-based; conditions: in vivo
# Mus musculus [14] = assay: In vivo inhibition of ERK2 in nude mouse xenografted with human HCT116 cells assessed as pRSK knockdown at 75 mg/kg, po qd after 8 hrs relative to vehicle-treated control; type: functional; conditions: HCT-116, 8 h
# [15] = Cmax in NCR nude mouse at 30 mg/kg, po; type: ADME, organism-based; parameters: dose 30 mg/kg, route oral; conditions: in vivo
# Mus musculus [16] = assay: In vivo inhibition of ERK2 in nude mouse xenografted with human HCT116 cells assessed as pRSK knockdown at 150 mg/kg, po qd after 8 hrs relative to vehicle-treated control; type: functional; conditions: HCT-116, 8 h
# [17] = Cmax in Sprague-Dawley rat at 5 mg/kg, po; type: ADME, organism-based; parameters: dose 5 mg/kg, route oral; conditions: in vivo
# [18] = Cmax in cynomolgus monkey at 3 mg/kg, po; type: ADME, organism-based, Macaca fascicularis; parameters: dose 3 mg/kg, route oral; conditions: in vivo
# [19] = Tmax in cynomolgus monkey at 3 mg/kg, po; type: ADME, organism-based, Macaca fascicularis; parameters: dose 3 mg/kg, route oral; conditions: in vivo
# [20] = Half life in NCR nude mouse at 100 mg/kg, po; type: ADME, organism-based; parameters: dose 100 mg/kg, route oral; conditions: in vivo
# [21] = Clearance in beagle dog at 1 mg/kg, iv; type: ADME, organism-based, Canis lupus familiaris; parameters: dose 1 mg/kg, route intravenous; conditions: in vivo
# [22] = Clearance in NCR nude mouse at 1 mg/kg, iv; type: ADME, organism-based; parameters: dose 1 mg/kg, route intravenous; conditions: in vivo
# Mus musculus [23] = assay: Toxicity in nude mouse xenografted with human HCT116 cells assessed as body weight loss at 150 mg/kg, po bid relative to vehicle-treated control; type: organism-based, HCT-116; parameters: dose 150 mg/kg, route oral; conditions: in vivo
# [24] = AUC (0 to infinity) in beagle dog at 2 mg/kg, po; type: ADME, organism-based, Canis lupus familiaris; parameters: dose 2 mg/kg, route oral, time infinity; conditions: plasma
# [25] = Cmax in NCR nude mouse at 150 mg/kg, po; type: ADME, organism-based; parameters: dose 150 mg/kg, route oral; conditions: in vivo
# [26] = Cmax in beagle dog at 2 mg/kg, po; type: ADME, organism-based, Canis lupus familiaris; parameters: dose 2 mg/kg, route oral; conditions: in vivo
# [27] = Oral bioavailability in NCR nude mouse at 150 mg/kg; type: ADME, organism-based; conditions: in vivo
# [28] = Half life in NCR nude mouse at 30 mg/kg, po; type: ADME, organism-based; parameters: dose 30 mg/kg, route oral; conditions: in vivo
# [29] = Oral bioavailability in cynomolgus monkey at 3 mg/kg; type: ADME, organism-based, Macaca fascicularis; conditions: in vivo
# [30] = Tmax in NCR nude mouse at 100 mg/kg, po; type: ADME, organism-based; parameters: dose 100 mg/kg, route oral; conditions: in vivo
# [31] = Clearance in CD-1 mouse at 0.5 mg/kg, iv; type: ADME, organism-based; parameters: dose 0.5 mg/kg, route intravenous; conditions: in vivo
# [32] = Half life in NCR nude mouse at 150 mg/kg, po; type: ADME, organism-based; parameters: dose 150 mg/kg, route oral; conditions: in vivo
# A-375 = assay: Antiproliferative activity against human A375 cells expressing B-Raf V600E mutant after 72 hrs by Cell-Titre Blue assay; type: functional, cell-based; conditions: A-375, 72 h
# [33] = Oral bioavailability in CD-1 mouse at 2 mg/kg; type: ADME, organism-based; conditions: in vivo
# [34] = Tmax in NCR nude mouse at 30 mg/kg, po; type: ADME, organism-based; parameters: dose 30 mg/kg, route oral; conditions: in vivo
# [35] = AUC (0 to infinity) in NCR nude mouse at 100 mg/kg, po; type: ADME, organism-based; parameters: time infinity, dose 100 mg/kg, route oral; conditions: plasma
# [36] = Clearance in cynomolgus monkey at 1 mg/kg, iv; type: ADME, organism-based, Macaca fascicularis; parameters: dose 1 mg/kg, route intravenous; conditions: in vivo
# [37] = Tmax in Sprague-Dawley rat at 5 mg/kg, po; type: ADME, organism-based; parameters: dose 5 mg/kg, route oral; conditions: in vivo
# [38] = Toxicity in po dosed nude mouse xenografted with human HCT116 cells administered bid; type: organism-based, HCT-116; conditions: in vivo
# [39] = Tmax in beagle dog at 2 mg/kg, po; type: ADME, organism-based, Canis lupus familiaris; parameters: dose 2 mg/kg, route oral; conditions: in vivo
# [40] = Oral bioavailability in NCR nude mouse at 100 mg/kg; type: ADME, organism-based; conditions: in vivo
# [41] = Cmax in NCR nude mouse at 100 mg/kg, po; type: ADME, organism-based; parameters: dose 100 mg/kg, route oral; conditions: in vivo
# [42] = Oral bioavailability in NCR nude mouse at 30 mg/kg; type: ADME, organism-based; conditions: in vivo
# [43] = Half life in cynomolgus monkey at 3 mg/kg, po; type: ADME, organism-based, Macaca fascicularis; parameters: dose 3 mg/kg, route oral; conditions: in vivo
# Mus musculus [44] = assay: In vivo inhibition of ERK2 in nude mouse xenografted with human HCT116 cells assessed as pRSK knockdown at 75 mg/kg, po qd after 1 hr relative to vehicle-treated control; type: functional; conditions: HCT-116, 1 h
# [45] = Half life in beagle dog at 2 mg/kg, po; type: ADME, organism-based, Canis lupus familiaris; parameters: dose 2 mg/kg, route oral; conditions: in vivo
# [46] = Antiproliferative activity against human HCT116 cells expressing K-Ras […] mutant after 72 hrs by Cell-Titre Blue assay; type: functional, cell-based; conditions: HCT-116, 72 h
# T1 sequence (P28482 whole entry): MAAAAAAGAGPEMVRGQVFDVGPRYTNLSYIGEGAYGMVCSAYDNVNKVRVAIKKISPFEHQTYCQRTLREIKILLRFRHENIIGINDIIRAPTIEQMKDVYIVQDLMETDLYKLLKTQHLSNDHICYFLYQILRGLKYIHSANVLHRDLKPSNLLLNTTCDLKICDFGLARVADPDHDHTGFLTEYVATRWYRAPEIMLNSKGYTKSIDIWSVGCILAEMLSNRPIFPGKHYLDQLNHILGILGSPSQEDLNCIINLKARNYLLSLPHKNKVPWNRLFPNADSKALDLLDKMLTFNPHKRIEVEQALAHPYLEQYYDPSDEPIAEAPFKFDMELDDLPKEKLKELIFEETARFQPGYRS
structure (smiles),measurement,setting,value
CNC[C@@H](NC(=O)N1CCc2cnc(NC(C)C)nc2C1)c1ccc(F)c(Cl)c1,IC50,[1],144 nM
same,IC50,[2],4 nM
Cn1cc(Nc2ncc3c(n2)CN(C(=O)N[C@H](CO)c2ccc(F)c(Cl)c2)CC3)cn1,IC50,[1],247 nM
same,IC50,[2],6 nM
CC(C)Nc1ncc2c(n1)CN(C(=O)N[C@@H](c1ccc(F)c(Cl)c1)[C@H](C)O)CC2,IC50,[1],200 nM
same,IC50,[2],6 nM
CC(C)Nc1ncc2c(n1)CN(C(=O)N[C@H](CN)c1ccc(F)c(Cl)c1)CC2,IC50,[1],356 nM
same,IC50,[2],2 nM
CC(C)Nc1ncc2c(n1)CN(C(=O)N[C@H](CNCCO)c1ccc(F)c(Cl)c1)CC2,IC50,[1],2760 nM
same,IC50,[2],8 nM
COCCOC[C@@H](NC(=O)N1CCc2cnc(NC(C)C)nc2C1)c1ccc(F)c(Cl)c1,IC50,[1],2110 nM
same,IC50,[2],122 nM
CCNc1ncc2c(n1)CN(C(=O)N[C@H](CO)c1ccc(F)c(Cl)c1)CC2,IC50,[1],753 nM
same,IC50,[2],20 nM
O=C(N[C@H](CO)c1ccc(F)c(Cl)c1)N1CCc2cnc(N[C@H]3CC[C@H](O)C3)nc2C1,IC50,[1],198 nM
same,IC50,[2],2 nM
COC[C@@H](NC(=O)N1CCc2cnc(NC(C)C)nc2C1)c1ccc(F)c(Cl)c1,IC50,[1],368 nM
same,IC50,[2],11 nM
O=C(N[C@H](CO)c1ccc(Cl)c(Cl)c1)N1CCc2cnc(NC3CCOCC3)nc2C1,IC50,[1],17 nM
same,IC50,[3],11 nM
same,fraction unbound,[4],0.103
same,IC50,[2],1 nM
CC(C)CNc1ncc2c(n1)CN(C(=O)N[C@H](CO)c1ccc(F)c(Cl)c1)CC2,IC50,[1],513 nM
same,IC50,[2],10 nM
O=C(N[C@H](CO)c1ccc(F)c(Cl)c1)N1CCc2cnc(Nc3ccc(F)cc3)nc2C1,IC50,[1],348 nM
same,IC50,[2],3 nM
COc1ccc(CNC(=O)N2CCc3cnc(NC(C)C)nc3C2)cc1,IC50,[1],4400 nM
same,IC50,[2],106 nM
CC(=O)Nc1ncc2c(n1)CN(C(=O)N[C@H](CO)c1ccc(F)c(Cl)c1)CC2,IC50,[1],7440 nM
same,IC50,[2],93 nM
CC(C)Nc1ncc2c(n1)CN(C(=O)NCc1ccc(F)c(Cl)c1)CC2,IC50,[1],1220 nM
same,IC50,[2],66 nM
O=C(N[C@H](CO)c1ccc(F)c(Cl)c1)N1CCc2cnc(NCCO)nc2C1,IC50,[1],2450 nM
same,IC50,[2],9 nM
O=C(N[C@H](CO)c1ccc(Cl)c(F)c1)N1CCc2cnc(NC3CCOCC3)nc2C1,bioavailability,[5],26%
same,AUC(0-inf),[6],0.65 µM·h
same,clearance,[7],104 mL/min/kg
same,half-life,[8],102 min
same,Tmax,[9],15 min
same,AUC(0-inf),[10],4.81 µM·h
same,AUC(0-inf),[11],0.2 µM·h
same,AUC(0-inf),[12],26.7 µM·h
same,bioavailability,[13],11%
same,inhibition in vivo at 75 mg/kg,Mus musculus [14],20%
same,Cmax,[15],3120 nM
same,inhibition in vivo at 150 mg/kg,Mus musculus [16],55%
same,Cmax,[17],90 nM
same,Cmax,[18],160 nM
same,Tmax,[19],79.8 min
same,half-life,[20],450 min
same,clearance,[21],32 mL/min/kg
same,clearance,[22],134 mL/min/kg
same,Activity,Mus musculus [23],Non-toxic
same,AUC(0-inf),[24],0.61 µM·h
same,Cmax,[25],13900 nM
same,Cmax,[26],590 nM
same,bioavailability,[27],64%
same,half-life,[28],144 min
same,bioavailability,[29],19%
same,Tmax,[30],15 min
same,clearance,[31],33 mL/min/kg
same,half-life,[32],162 min
same,EC50,A-375,390 nM
same,bioavailability,[33],29%
same,Tmax,[34],30 min
same,AUC(0-inf),[35],30 µM·h
same,clearance,[36],33 mL/min/kg
same,Tmax,[37],19.8 min
same,MTD,[38],50 mg/kg
same,Tmax,[39],25.2 min
same,bioavailability,[40],73%
same,Cmax,[41],9820 nM
same,bioavailability,[42],58%
same,half-life,[43],312 min
same,inhibition in vivo at 75 mg/kg,Mus musculus [44],75%
same,half-life,[45],36 min
same,EC50,[46],740 nM
O=C(N[C@H](CO)c1ccc(F)c(Cl)c1)N1CCc2cnc(NC3CCCC3)nc2C1,IC50,[1],330 nM
same,IC50,[2],4 nM
CC(C)Nc1ncc2c(n1)CN(C(=O)NCc1cccc(F)c1)CC2,IC50,[1],2610 nM
same,IC50,[2],93 nM
CC(C)Nc1ncc2c(n1)CN(C(=O)N[C@@H](c1ccc(F)c(Cl)c1)[C@@H](C)O)CC2,IC50,[1],88 nM
same,IC50,[2],3 nM
CC(C)Nc1ncc2c(n1)CN(C(=O)NCc1cccc(Cl)c1)CC2,IC50,[1],1860 nM
same,IC50,[2],89 nM
C[C@@H](CO)Nc1ncc2c(n1)CN(C(=O)N[C@H](C)c1ccc(Cl)c(Cl)c1)CC2,IC50,[1],21 nM
same,IC50,[3],104 nM
same,fraction unbound,[4],0.03
same,IC50,[2],1 nM
CC[C@H](O)[C@@H](NC(=O)N1CCc2cnc(NC(C)C)nc2C1)c1ccc(F)c(Cl)c1,IC50,[1],108 nM
same,IC50,[2],2 nM
